Data reported in US4537717A.
Values after ≈ are worked out from the molar mass of the structure shown.

Experiments:
[1] = tested on: Staphylococcus epidermidis EPI1; type: cell-based; details: agar dilution; 2, 5, 17, 22 median of three tests; paired values two experiments
[2] = tested on: Staphylococcus aureus ATCC 6738P; experiment: agar-plate disc-diffusion test; type: cell-based; details: suspended in water at 1 mg/ml; 7 mm disc; 24-48 hours at 25-37° C.
[3] = tested on: Streptococcus pneumoniae Group D X66; type: cell-based; details: agar dilution; 2, 5, 17, 22 median of three tests; paired values two experiments
[4] = tested on: Staphylococcus aureus; experiment: in vivo activity against experimental bacterial infection (ED50); details: mice; two doses subcutaneously; dose protecting fifty percent of test animals
[5] = tested on: Bacillus subtilis ATCC 6633; experiment: agar-plate disc-diffusion test; details: 7 mm disc, 24-48 hours at 25-37° C.; for Size of Zone of Inhibition (mm) B. subtilis ATCC 6633, grown on minimal nutrient agar: 1 mg/ml; for Size of Zone of Inhibition (mm) Bacillus subtilis ATCC 6633: suspended in water at 1 mg/ml
Procedure: ^a Compounds were suspended in water at a concentration of 1 mg/ml; a
7 mm disc was dipped into the suspension and then placed on the agar
surface; incubation: 24-48 hours at 25-37° C.
^b Grown on minimal nutrient agar

[6] = tested on: Streptococcus pyogenes; experiment: in vivo activity against experimental bacterial infection (ED50); details: mice, dose protecting fifty percent of test animals; for ED50 Streptococcus pyogenes Oral: two doses orally; for ED50 Streptococcus pyogenes Subcutaneous: two doses subcutaneously
[7] = tested on: Staphylococcus aureus V41; type: cell-based; details: penicillin-resistant strain; agar dilution; 2, 5, 17, 22 median of three tests; paired values two experiments
[8] = tested on: Micrococcus luteus ATCC 9341; experiment: agar-plate disc-diffusion test; type: cell-based; details: suspended in water at 1 mg/ml; 7 mm disc; 24-48 hours at 25-37° C.
[9] = toxicity test (LD50); details: mouse, in vivo, iv, mice; administered intravenously
[10] = tested on: Streptococcus pyogenes C203; type: cell-based; details: agar dilution; 2, 5, 17, 22 median of three tests; paired values two experiments
[11] = tested on: Streptococcus pneumoniae Park I; type: cell-based; details: agar dilution; 2, 5, 17, 22 median of three tests; paired values two experiments
[12] = tested on: Streptococcus Group 9960; type: cell-based, Streptococcus pneumoniae; details: agar dilution; 2, 5, 17, 22 median of three tests; paired values two experiments
[13] = tested on: Staphylococcus epidermidis EPI2; type: cell-based; details: agar dilution; 2, 5, 17, 22 median of three tests; paired values two experiments
[14] = tested on: Staphylococcus aureus X400; type: cell-based; details: methicillin-resistant strain; agar dilution; 2, 5, 17, 22 median of three tests; paired values two experiments
[15] = tested on: Staphylococcus aureus X1.1; type: cell-based; details: agar dilution; 2, 5, 17, 22 median of three tests; paired values two experiments

Structure (SMILES)	MIC Staphylococcus epidermidis EPI1 [1] [µg/mL]	Size of Zone of Inhibition (mm) Staphylococcus aureus ATCC 6738P [2] [mm]	MIC Streptococcus pneumoniae Group D X66 [3] [µg/mL]	ED50 Staphylococcus aureus Subcutaneous [4] [mg/kg × 2]	Size of Zone of Inhibition (mm) B. subtilis ATCC 6633, grown on minimal nutrient agar [5] [mm]	Size of Zone of Inhibition (mm) Bacillus subtilis ATCC 6633 [5] [mm]	ED50 Streptococcus pyogenes Oral [6] [mg/kg × 2]	ED50 Streptococcus pyogenes Subcutaneous [6] [mg/kg × 2]	MIC Staphylococcus aureus V41 [7] [µg/mL]	Size of Zone of Inhibition (mm) Micrococcus luteus ATCC 9341 [8] [mm]	LD50 [9] [mg/kg]	MIC Streptococcus pyogenes C203 [10] [µg/mL]	MIC Streptococcus pneumoniae Park I [11] [µg/mL]	MIC Streptococcus pneumoniae Group 9960 [12] [µg/mL]	MIC Staphylococcus epidermidis EPI2 [13] [µg/mL]	MIC Staphylococcus aureus X400 [14] [µg/mL]	MIC Staphylococcus aureus X1.1 [15] [µg/mL]
CCCCCCCCCCCCC(=O)N[C@@H](Cc1c[nH]c2ccccc12)C(=O)N[C@@H](CC(N)=O)C(=O)N[C@@H](CC(=O)O)C(=O)N[C@@H]1C(=O)NCC(=O)N[C@@H](CCCN)C(=O)N[C@@H](CC(=O)O)C(=O)N[C@H](C)C(=O)N[C@@H](CC(=O)O)C(=O)NCC(=O)N[C@H](CO)C(=O)N[C@@H]([C@H](C)CC(=O)O)C(=O)N[C@@H](CC(=O)c2ccccc2N)C(=O)O[C@@H]1C [Compound 7]	0.5 (≈ 0.301 µM)	21	0.03 (≈ 0.018 µM)	0.54	29	17	45	0.046	0.125 (≈ 0.0752 µM)	19	112	0.25 (≈ 0.15 µM)	0.25 (≈ 0.15 µM)	32 (≈ 19.2 µM)	0.5 (≈ 0.301 µM)	0.5 (≈ 0.301 µM)	0.125 (≈ 0.0752 µM)
CCCCCCCCC(=O)N[C@@H](Cc1c[nH]c2ccccc12)C(=O)N[C@@H](CC(N)=O)C(=O)N[C@@H](CC(=O)O)C(=O)N[C@@H]1C(=O)NCC(=O)N[C@@H](CCCN)C(=O)N[C@@H](CC(=O)O)C(=O)N[C@H](C)C(=O)N[C@@H](CC(=O)O)C(=O)NCC(=O)N[C@H](CO)C(=O)N[C@@H]([C@H](C)CC(=O)O)C(=O)N[C@@H](CC(=O)c2ccccc2N)C(=O)O[C@@H]1C [Compound 3]	4 (≈ 2.49 µM)	20	32 (≈ 19.9 µM)	0.5	27	16			2 (≈ 1.24 µM)	18	> 600	0.25 (≈ 0.156 µM)	2 (≈ 1.24 µM)	8 (≈ 4.98 µM)	2 (≈ 1.24 µM)	4 (≈ 2.49 µM)	2 (≈ 1.24 µM)
CCCCCCCCCCC(=O)NCCC[C@@H]1NC(=O)CNC(=O)[C@@H](NC(=O)[C@H](CC(=O)O)NC(=O)[C@H](CC(N)=O)NC(=O)[C@H](Cc2c[nH]c3ccccc23)NC(=O)CCCCCCCCCC)[C@@H](C)OC(=O)[C@H](CC(=O)c2ccccc2N)NC(=O)[C@H]([C@H](C)CC(=O)O)NC(=O)[C@@H](CO)NC(=O)CNC(=O)[C@H](CC(=O)O)NC(=O)[C@@H](C)NC(=O)[C@H](CC(=O)O)NC1=O [Compound 17]	8 (≈ 4.44 µM)	17	8 (≈ 4.44 µM)	> 35	20	13	> 200	2.85	4 (≈ 2.22 µM)	14	94	0.25 (≈ 0.139 µM)	0.125 (≈ 0.0693 µM)	8 (≈ 4.44 µM)	8 (≈ 4.44 µM)	4 (≈ 2.22 µM)	1 (≈ 0.555 µM)
CCCCCCCCCCCCCCC(=O)N[C@@H](Cc1c[nH]c2ccccc12)C(=O)N[C@@H](CC(N)=O)C(=O)N[C@@H](CC(=O)O)C(=O)N[C@@H]1C(=O)NCC(=O)N[C@@H](CCCN)C(=O)N[C@@H](CC(=O)O)C(=O)N[C@H](C)C(=O)N[C@@H](CC(=O)O)C(=O)NCC(=O)N[C@H](CO)C(=O)N[C@@H]([C@H](C)CC(=O)O)C(=O)N[C@@H](CC(=O)c2ccccc2N)C(=O)O[C@@H]1C [Compound 9]	2 (≈ 1.18 µM)	20	2 (≈ 1.18 µM)	8.3	24	19	> 200		1 (≈ 0.591 µM)	19	56.2	1 (≈ 0.591 µM)	0.06 (≈ 0.0355 µM)	0.25 (≈ 0.148 µM)	4 (≈ 2.37 µM)	2 (≈ 1.18 µM)	1 (≈ 0.591 µM)
CCCCC=CCCCCCCCC(=O)N[C@@H](Cc1c[nH]c2ccccc12)C(=O)N[C@@H](CC(N)=O)C(=O)N[C@@H](CC(=O)O)C(=O)N[C@@H]1C(=O)NCC(=O)N[C@@H](CCCN)C(=O)N[C@@H](CC(=O)O)C(=O)N[C@H](C)C(=O)N[C@@H](CC(=O)O)C(=O)NCC(=O)N[C@H](CO)C(=O)N[C@@H]([C@H](C)CC(=O)O)C(=O)N[C@@H](CC(=O)c2ccccc2N)C(=O)O[C@@H]1C [Compound 12]	2 (≈ 1.19 µM)	22	2 (≈ 1.19 µM)	3.28	30	19	75	0.134	1 (≈ 0.597 µM)	20	450	0.5 (≈ 0.299 µM)	0.5 (≈ 0.299 µM)	1 (≈ 0.597 µM)	2 (≈ 1.19 µM)	2 (≈ 1.19 µM)	1 (≈ 0.597 µM)
C=CCCCCCCCCC(=O)N[C@@H](Cc1c[nH]c2ccccc12)C(=O)N[C@@H](CC(N)=O)C(=O)N[C@@H](CC(=O)O)C(=O)N[C@@H]1C(=O)NCC(=O)N[C@@H](CCCN)C(=O)N[C@@H](CC(=O)O)C(=O)N[C@H](C)C(=O)N[C@@H](CC(=O)O)C(=O)NCC(=O)N[C@H](CO)C(=O)N[C@@H]([C@H](C)CC(=O)O)C(=O)N[C@@H](CC(=O)c2ccccc2N)C(=O)O[C@@H]1C [Compound 11]	1 (≈ 0.612 µM)	21	1 (≈ 0.612 µM)	0.93	25	17	138	0.068	0.5 (≈ 0.306 µM)	20	≥ 500	0.5 (≈ 0.306 µM)	0.25 (≈ 0.153 µM)	0.5 (≈ 0.306 µM)	1 (≈ 0.612 µM)	0.5 (≈ 0.306 µM)	0.5 (≈ 0.306 µM)
